Laboratory results as given in US20240158446A1, “CYCLIC COMPOUND HAVING SELECTIVE INHIBITORY ACTION ON KRAS OVER HRAS AND NRAS” (CHUGAI SEIYAKU KABUSHIKI KAISHA, priority 2021, published 2024).
Read-outs that look alike come from different tables or passages of the source.

Columns and labels:
[1] = target: GDP-bound KRAS wild-type protein (Homo sapiens, UniProt P01116); assay: Binding to KRAS by surface plasmon resonance (SPR), Single Cycle Kinetics
[2] = target: GDP-bound NRAS wild-type protein (Homo sapiens, UniProt P01111); assay: Binding to NRAS by surface plasmon resonance (SPR), Single Cycle Kinetics; conditions: for NRAS/KRAS (ratio of KD value with respect to GDP-bound NRAS wild-type protein to KD value with respect to KRAS): SPR KD ratio NRAS/KRAS, class symbols
GDP-bound NRAS wild-type protein, sequence (P01111 whole entry): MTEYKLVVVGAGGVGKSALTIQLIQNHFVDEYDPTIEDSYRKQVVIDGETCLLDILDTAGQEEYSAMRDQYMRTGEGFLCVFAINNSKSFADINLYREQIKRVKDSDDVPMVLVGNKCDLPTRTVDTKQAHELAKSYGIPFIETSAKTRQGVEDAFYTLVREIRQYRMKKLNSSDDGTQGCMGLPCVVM

[3] = target: GDP-bound HRAS wild-type protein (Homo sapiens, UniProt P01112); assay: Binding to HRAS by surface plasmon resonance (SPR), Single Cycle Kinetics; conditions: for HRAS/KRAS (ratio of KD value with respect to GDP-bound HRAS wild-type protein to KD value with respect to KRAS): SPR KD ratio HRAS/KRAS, class symbols
GDP-bound HRAS wild-type protein, sequence (P01112 whole entry): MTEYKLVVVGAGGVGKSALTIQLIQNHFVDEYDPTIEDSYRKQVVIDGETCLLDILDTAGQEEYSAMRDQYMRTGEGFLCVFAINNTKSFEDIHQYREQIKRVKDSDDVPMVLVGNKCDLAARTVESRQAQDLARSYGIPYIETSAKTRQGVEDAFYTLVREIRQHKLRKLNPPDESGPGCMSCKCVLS

[4] = tested on: human lung cancer strain NCI-H441;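 further: cell proliferation inhibition after four days measured by CellTiter-Glo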
[5] = SPR Single Cycle Kinetics, GDP-bound KRAS wild-type protein, 1:1 binding model, read-out: KRAS KD
[6] = SPR, GDP-bound NRAS wild-type protein vs GDP-bound KRAS wild-type protein
[7] = SPR, GDP-bound HRAS wild-type protein vs GDP-bound KRAS wild-type protein
[8] = SPR, Single Cycle Kinetics, 1:1 binding model, GDP-bound KRAS wild-type protein, read-out: KRAS KD
[9] = SPR, GDP-bound NRAS wild-type protein vs GDP-bound KRAS wild-type protein, KD ratio class
[10] = SPR, GDP-bound HRAS wild-type protein vs GDP-bound KRAS wild-type protein, KD ratio class
[11] = SPR, Single Cycle Kinetics, GDP-bound KRAS wild-type protein, read-out: KRAS KD
[12] = read-out: NCI-H441 cell proliferation inhibitory activity, 50% proliferation inhibitory concentration (IC50 value), NCI-H441, four days, CellTiter-Glo

GDP-bound KRAS wild-type protein, sequence (P01116 whole entry): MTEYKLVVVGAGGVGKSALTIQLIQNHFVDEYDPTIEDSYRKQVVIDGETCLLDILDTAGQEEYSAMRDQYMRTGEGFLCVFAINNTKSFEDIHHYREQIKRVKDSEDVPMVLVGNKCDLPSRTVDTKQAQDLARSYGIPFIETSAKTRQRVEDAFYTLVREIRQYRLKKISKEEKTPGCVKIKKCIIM

Row | SMILES | Kd [1, 5] | IC50 [4] | Kd [1, 11] | NRAS/KRAS (ratio of KD value for NRAS to KD value for KRAS) [2, 6] | HRAS/KRAS (ratio of KD value for HRAS to KD value for KRAS) [3, 7] | also measured
1 | CCO[C@@H]1C[C@H]2C(=O)NC3(CCC3)C(=O)N(C)[C@@H](C3CCCC3)C(=O)N(C)[C@H](C(=O)N3CCOCC3)CC(=O)N(C)C(C)(C)C(=O)N[C@@H]([C@@H](C)CC)C(=O)N(C)CC(=O)N(C)[C@H]3CCCCN(C3=O)[C@@H](Cc3ccc(C(F)(F)F)cc3)C(=O)N(C)CC(=O)N[C@@H](CCc3cc(F)c(C(F)(F)F)c(F)c3)C(=O)N2C1 [PP0722] | 25 nM | 2600 nM | – | – | – | NRAS/KRAS (ratio of KD value with respect to NRAS to KD value with respect to KRAS) [2, 6]: C (A compound having a KD ratio of 0.1 or more and less than 3 is denoted as C); HRAS/KRAS (ratio of KD value with respect to HRAS to KD value with respect to KRAS) [3, 7]: B (a compound having 3 or more and less than 10 is denoted as B)
2 | CCC[C@H]1C(=O)N[C@@H]([C@@H](C)CC)C(=O)N(C)CC(=O)N(C)[C@H]2C/C=C\CCN(C2=O)[C@@H](CC2CCCCC2)C(=O)N(C)CC(=O)N[C@@H](CCc2cc(F)c(C(F)(F)F)c(F)c2)C(=O)N2C[C@H](OCC)C[C@H]2C(=O)NC2(CCC2)C(=O)N(C)[C@@H](C2CCCC2)C(=O)N(C)[C@H](C(=O)N(C)C)CC(=O)N1C [PP1464] | – | 32.3 nM | – | – | – | Kd [1, 8]: 0.15 nM; NRAS/KRAS (ratio of KD value for NRAS to KD value for KRAS) [2, 9]: A (a compound having 10 or more and less than 20 is denoted as A); HRAS/KRAS (ratio of KD value for HRAS to KD value for KRAS) [3, 10]: A (a compound having 10 or more and less than 20 is denoted as A)
3 | CCO[C@@H]1C[C@H]2C(=O)N(C)C3(CC(C)(C)C3)C(=O)N(C)[C@@H](C3CCCC3)C(=O)N(C)[C@H](C(=O)N(C)C)CC(=O)N(C)[C@H]3CCC/C=C/c4ccc(cc4)C[C@@H](C(=O)N(C)CC(=O)N[C@@H](CCc4ccc(Cl)c(Cl)c4)C(=O)N2C1)N1CC/C=C\C[C@@H](C1=O)N(C)C(=O)CN(C1CC1)C(=O)[C@H]([C@@H](C)CC)NC3=O [PP3061] | – | 4.4 nM | 0.13 nM | A (a compound having 10 or more and less than 20 is denoted as A) | A (a compound having 10 or more and less than 20 is denoted as A) | –
4 | CCC[C@H]1C(=O)N[C@@H]([C@@H](C)CC)C(=O)N(C2CC2)CC(=O)N(C)[C@H]2C/C=C\CCN(C2=O)[C@@H](Cc2ccc(C(F)(F)F)cc2)C(=O)N(C)CC(=O)N[C@@H](CCc2ccc(C(F)(F)F)c(OC)c2)C(=O)N2C[C@H](OCC)C[C@H]2C(=O)N(C)C2(CCC2)C(=O)N(C)[C@@H](C2CCCC2)C(=O)N(C)[C@H](C(=O)N2CCCCC2)CC(=O)N1C [PP3095, (2S,8S,12R,14S,20S,23S,27S,30S,36S,38Z)-20-cyclopentyl-32-cyclopropyl-12-ethoxy-8-[2-[3-methoxy-4-(trifluoromethyl)phenyl]ethyl]-4,16,19,22,26,35-hexamethyl-30-[(1S)-1-methylpropyl]-23-(piperidine-1-carbonyl)-27-propyl-2-[[4-(trifluoromethyl)phenyl]methyl]spiro[1,4,7,10,16,19,22,26,29,32,35-undecazatricyclo[34.5.1.0^10,14]dotetracont-38-ene-17,1′-cyclobutane]-3,6,9,15,18,21,25,28,31,34,42-undecone] | – | – | 0.67 nM | A (a compound having 10 or more and less than 20 is denoted as A) | A (a compound having 10 or more and less than 20 is denoted as A) | Kd ([1]; SPR, Single Cycle Kinetics, 1:1 binding model, read-out: KD value with respect to GDP-bound KRAS wild-type protein): 0.67 nM; ratio of the KD value with respect to GDP-bound NRAS wild-type protein to the KD value with respect to KRAS ([2]; SPR): A (a compound having 10 or more and less than 20 is denoted as A); ratio of the KD value with respect to GDP-bound HRAS wild-type protein to the KD value with respect to KRAS ([3]; SPR): A (a compound having 10 or more and less than 20 is denoted as A); IC50 [4, 12]: 33.7 nM
5 | CCC[C@H]1C(=O)N[C@@H]([C@@H](C)CC)C(=O)N(C)CC(=O)N(C)[C@H]2C/C=C\CCN(C2=O)[C@@H](Cc2ccc(C)cc2)C(=O)N(C)CC(=O)N[C@@H](CCc2ccc(C(F)(F)F)c(OC)c2)C(=O)N2C[C@H](OCC)C[C@H]2C(=O)NC2(CC(C)(C)C2)C(=O)N(C)[C@@H](CC(C)(C)C)C(=O)N(C)[C@H](C(=O)N(C)C)CC(=O)N1C [PP2710] | 0.1 nM | 5.3 nM | – | – | – | NRAS/KRAS (ratio of KD value with respect to GDP-bound NRAS wild-type protein to KD value with respect to KRAS) [2]: B (a compound having 3 or more and less than 10 is denoted as B); HRAS/KRAS (ratio of KD value with respect to GDP-bound HRAS wild-type protein to KD value with respect to KRAS) [3]: B (a compound having 3 or more and less than 10 is denoted as B)
6 | C#CCN1CC(=O)N(C)[C@H]2C/C=C\CCN(C2=O)[C@@H](Cc2ccc(C(F)(F)F)cc2)C(=O)N(C)CC(=O)N[C@@H](CCc2ccc(C(F)(F)F)c(OC)c2)C(=O)N2C[C@H](OCC)C[C@H]2C(=O)NC2(CC(C)(C)C2)C(=O)N(C)[C@@H](C2CCCC2)C(=O)N(C)[C@H](C(=O)N(C)C)CC(=O)N(C)[C@@H](CC)C(=O)N[C@@H]([C@@H](C)CC)C1=O [PP2091] | – | 4.6 nM | 0.18 nM | A (a compound having 10 or more and less than 20 is denoted as A) | B (a compound having 3 or more and less than 10 is denoted as B) | –
7 | CC[C@H](C)[C@@H]1NC(=O)[C@H](COC)N(C)C(=O)C[C@@H](C(=O)N2CCCCC2)N(C)C(=O)[C@H](C2CCCC2)N(C)C(=O)C2(CC(C)(C)C2)NC(=O)[C@@H]2C[C@@H](OC(C)C)CN2C(=O)[C@H](CCc2cc(F)c(C(F)(F)F)c(F)c2)NC(=O)CN(C)C(=O)[C@H](Cc2ccc(C(F)(F)F)cc2)N2CC/C=C\C[C@@H](C2=O)N(C)C(=O)CN(C2CC2)C1=O [PP2667] | 1.8 nM | 30.6 nM | – | – | – | NRAS/KRAS (ratio of KD value with respect to GDP-bound NRAS wild-type protein to KD value with respect to KRAS) [2]: A (a compound having 10 or more and less than 20 is denoted as A); HRAS/KRAS (ratio of KD value with respect to GDP-bound HRAS wild-type protein to KD value with respect to KRAS) [3]: A (a compound having 10 or more and less than 20 is denoted as A)
8 | CCC(CC)[C@H]1C(=O)N(C)[C@H](C(=O)N(C)C)CC(=O)N(C)[C@@H](COC)C(=O)N[C@@H]([C@@H](C)CC)C(=O)N(C)CC(=O)N(C)[C@H]2C/C=C\CCN(C2=O)[C@@H](Cc2ccc(C(F)(F)F)cc2)C(=O)N(C)CC(=O)N[C@@H](CCc2ccc(Cl)c(Cl)c2)C(=O)N2C[C@H](OC3CCCC3)C[C@H]2C(=O)NC2(CC(C)(C)C2)C(=O)N1C [PP2648] | 0.85 nM | 68.5 nM | – | – | – | NRAS/KRAS (ratio of KD value with respect to GDP-bound NRAS wild-type protein to KD value with respect to KRAS) [2]: A (a compound having 10 or more and less than 20 is denoted as A); HRAS/KRAS (ratio of KD value with respect to GDP-bound HRAS wild-type protein to KD value with respect to KRAS) [3]: A (a compound having 10 or more and less than 20 is denoted as A)
9 | CCC(CC)[C@H]1C(=O)N(C)[C@H](C(=O)N(C)C)CC(=O)N(C)[C@@H](COC)C(=O)N[C@@H]([C@@H](C)CC)C(=O)N(C2CC2)CC(=O)N(C)[C@H]2C/C=C\CCN(C2=O)[C@@H](CC2CCCCC2)C(=O)N(C)CC(=O)N[C@@H](CCc2cc(F)c(C(F)(F)F)c(F)c2)C(=O)N2C[C@H](OC(C)C)C[C@H]2C(=O)NC2(CC(C)(C)C2)C(=O)N1C [PP2515] | – | 384 nM | 5.1 nM | A (a compound having 10 or more and less than 20 is denoted as A) | A (a compound having 10 or more and less than 20 is denoted as A) | –
10 | CC[C@H](C)[C@@H]1NC(=O)[C@@H]2CCCc3ccc(cc3)C[C@@H](C(=O)N(C)CC(=O)N[C@@H](CCc3ccc(C(F)(F)F)c(OC)c3)C(=O)N3C[C@H](OC4CCC4)C[C@H]3C(=O)NC3(CC(C)(C)C3)C(=O)N(C)[C@@H](C3CCCC3)C(=O)N(C)[C@H](C(=O)N(C)CC)CC(=O)N2C)N2CC/C=C\C[C@@H](C2=O)N(C)C(=O)CN(C)C1=O [PP3085] | – | – | 0.11 nM | A (a compound having 10 or more and less than 20 is denoted as A) | B (a compound having 3 or more and less than 10 is denoted as B) | ratio of the KD value with respect to GDP-bound NRAS wild-type protein to the KD value with respect to KRAS ([2]; SPR): A (a compound having 10 or more and less than 20 is denoted as A); ratio of the KD value with respect to GDP-bound HRAS wild-type protein to the KD value with respect to KRAS ([3]; SPR): B (a compound having 3 or more and less than 10 is denoted as B); IC50 [4, 12]: 6.3 nM
11 | CCO[C@@H]1C[C@H]2C(=O)NC3(CCC3)C(=O)N(C)[C@@H](C3CCCC3)C(=O)N(C)[C@H](C(=O)N3CCOCC3)CC(=O)N(C)[C@@H](CC3CCCC3)C(=O)N[C@@H]([C@@H](C)CC)C(=O)N(C)CC(=O)N(C)[C@H]3C/C=C\CCN(C3=O)[C@@H](Cc3ccc(C)cc3)C(=O)N(C)CC(=O)N[C@@H](CCc3cc(F)c(C(F)(F)F)c(F)c3)C(=O)N2C1 [PP1394] | – | 25.1 nM | – | – | – | Kd [1, 8]: 0.24 nM; NRAS/KRAS (ratio of KD value for NRAS to KD value for KRAS) [2, 9]: AA (a compound having 20 or more is denoted as AA); HRAS/KRAS (ratio of KD value for HRAS to KD value for KRAS) [3, 10]: A (a compound having 10 or more and less than 20 is denoted as A)
